From patent publication US7557127B2, “HDAC inhibitor” (Astellas Pharma Inc., priority 2004, dated 2009) come the findings set out here.

In experiment [1] the test system is splenic cells of Lewis rats. Kind of experiment: Test 2: Determination of T-Cell Growth Inhibitor Activity (T lymphocyte blastogenesis test). Format: cell-based. To be noted: Rattus norvegicus, Concanavalin A added, 72 hours, AlamarBlue Assay, read-out: Test 2: T-cell growth inhibitory activity IC50. As for the experimental part: Test 2: Determination of T-Cell Growth Inhibitor Activity The T lymphocyte blastogenesis test was performed in microtiter plates with each well containing 1.5×10^5 splenic cells of Lewis rats in 0.1 mL RPMI-1640 medium supplemented with 10% fetal bovine serum (FBS), […] 2-mercaptoethanol, penicillin (100 units/mL) and streptomycin (100 μg/mL), to which Concanavalin A (1 μl/mL) was added. The cells were incubated at 37° C. in a humidified atmosphere of 5% CO2 for 72 hours. After the culture period, suppressive activities of the test compounds in T lymphocyte blastogenesis were quantified by AlamarBlue (trademark) Assay. The test samples were dissolved in DMSO and further diluted with RPMI-1640 medium and added to the culture. The activities of the test compounds were expressed as IC50.
A general note: Resazurin is reduced to fluorescent resorufin, in cell work by metabolically active cells.

The target in experiment [2] is T1, human histone deacetylase.
T1 construct: The human histone deacetylase was partially purified from human T cell leukemia Jurkat cells
Put plainly: Test 1: Determination of Histone Deacetylase Inhibitor Activity. Format: biochemical. To be noted: enzyme partially purified from human T cell leukemia Jurkat cells; [3H] acetyl-labeled histones; 25° C., 30 minutes; read-out: Test 1: HDAC inhibitory activity IC50. On the procedure: Test 1: Determination of Histone Deacetylase Inhibitor Activity
The partial purification of human histone deacetylase, the preparation of [^3H] acetyl histones, and the assay for histone deacetylase activity were performed basically according to the method as proposed by Yoshida et al. as follows.
Partial Purification of Human Histone Deacetylase
The human histone deacetylase was partially purified from human T cell leukemia Jurkat cells. Jurkat cells (5×10^8 cells) were suspended in 40 mL of the HDA buffer consisting of 15 mM potassium phosphate, pH 7.5, 5% glycerol and 0.2 mM EDTA. After homogenization, nuclei were collected by centrifugation (35,000×g, 10 min) and homogenized in 20 mL of the same buffer supplemented with 1 M (NH4)2SO4. The viscous homogenate was sonicated and clarified by centrifugation (35,000×g, 10 min), and the deacetylase was precipitated by raising the concentration of (NH4)2SO4 to 3.5 M. The precipitated protein was dissolved in 10 mL of the HDA buffer and dialyzed against 4 liters of the same buffer. The dialyzate was then loaded onto a DEAE-cellulose (Whatman DE52) column (25×85 mm) equilibrated with the same buffer and eluted with 300 mL of a linear gradient (0-0.6 M) of NaCl. A single peak of histone deacetylase activity appeared between 0.3 and 0.4 M NaCl.
Preparation of [^3H] Acetyl Histone
To obtain [^3H] acetyl-labeled histone as the substrate for the histone deacetylase assay, 1×10^8 cells of Jurkat in 20 mL of RPMI-1640 medium (supplemented with 10% FBS, penicillin (50 units/mL) and streptomycin (50 μg/mL)) were incubated with 300 MBq [^3H] sodium acetate in the presence of 5 mM sodium butyrate for 30 minutes in 5% CO2-95% air atmosphere at 37° C. in a 75 cm^2 flask, harvested into a centrifuge tube (50 mL), collected by centrifugation at 1000 rpm for 10 minutes, and washed once with phosphate-buffered saline. The washed cells were suspended in 15 mL of ice-cold lysis buffer (10 mM Tris-HCl, 50 mM sodium bisulfite, 1% Triton X-100, 10 mM MgCl2, 8.6% sucrose, pH 6.5). After Dounce homogenization (30 stroke), the nuclei were collected by centrifugation at 1000 rpm for 10 minutes, washed 3 times with 15 mL of the lysis buffer, and once with 15 mL of ice-cooled washing buffer (10 mM Tris-HCl, 13 mM EDTA, pH 7.4) successively. The pellet was suspended in 6 mL of ice-cooled water using a mixer, and 68 μl of H2SO4 was added to the suspension to give a concentration of 0.4 N. After incubation at 4° C. for 1 hour, the suspension was centrifuged for 5 minutes at 15, 000 rpm, and the supernatant was taken and mixed with 60 mL of acetone. After overnight incubation at −20° C., the coagulated material was collected by microcentrifugation, air-dried, and stored at −80° C.
Assay for Histone Deacetylase Activity
For the standard assay, 10 μl of [^3H] acetyl-labeled histones were added to 90 μl of the enzyme fraction, and the mixture was incubated at 25° C. for 30 minutes. The reaction was stopped by addition of 10 μL of HCl. The released [^3H] acetic acid was extracted with 1 mL of ethyl acetate, and 0.9 mL of the solvent layer was taken into 10 mL of toluene scintillation solution for determination of radioactivity.

Broadly, the IC50 is the concentration at which inhibition is half-maximal.

Molecules are shown by their SMILES. Counter-ions that a name gives are not always drawn.

In the case of `O=C(/C=C/c1ccc(N[C@@H]2CCN(Cc3ccccc3)C2)nc1)NO` [Example 3, (2E)-3-(6-{[(3R)-1-Benzyl-3-pyrrolidinyl]amino}-3-pyridyl)-N-hydroxyacrylamide dihydrochloride], the results for the IC50 in experiment [1] and in experiment [2] were less than 25 nM and less than 10 nM, respectively.

With `O=C(/C=C/c1ccc(N[C@@H]2CCN(CC3CCCCC3)C2)nc1)NO` [Example 60, (2E)-3-(6-{[(3R) 1-(Cyclohexylmethyl)-3-pyrrolidinyl]amino}-3-pyridyl)-N-hydroxyacrylamide dihydrochloride], the concentration for half-maximal inhibition (IC50) in experiment [1] was less than 25 nM; in experiment [2] it was less than 10 nM.

Consider `O=C(/C=C/c1cnc(N[C@@H]2CCN(Cc3ccc(Cl)cc3)C2)cn1)NO` [Example 74, (2E)-3-(5-{[(3R)-1-(4-chlorobenzyl)-3-pyrrolidinyl]amino}-2-pyrazinyl)-N-hydroxyacrylamide dihydrochloride], for which the results for the half-maximal inhibitory concentration (IC50) in experiment [1] and in experiment [2] were less than 25 nM and less than 10 nM, respectively.

Consider `O=C(/C=C/c1cnc(N[C@@H]2CCCN(Cc3ccccc3)C2)cn1)NO` [Example 76, (2E)-3-(5-{[(3R)-1-Benzyl-3-piperidinyl]amino}-2-pyrazinyl)-N-hydroxyacrylamide dihydrochloride], for which the half-inhibitory concentration (IC50) in experiment [1] is less than 25 nM; in experiment [2], less than 10 nM.

Turning to `O=C(/C=C/c1cnc(N[C@@H]2CCN(Cc3ccccc3)C2)cn1)NO` [Example 82, (2E)-3-(5-{[(3R)-1-Benzyl-3-pyrrolidinyl]amino}-2-pyrazinyl)-N-hydroxyacrylamide dihydrochloride], the IC50 in experiment [1] was less than 25 nM; in experiment [2], less than 10 nM.

In the case of `O=C(/C=C/c1cnc(N[C@@H]2CCN(Cc3ccc(F)cc3)C2)cn1)NO` [Example 116, (2E)-3-(5-{[(3R)-1-(4-fluorobenzyl)-3-pyrrolidinyl]amino}-2-pyrazinyl)-N-hydroxyacrylamide dihydrochloride], the IC50 in experiment [1] is less than 25 nM; in experiment [2], less than 10 nM.

Regarding `O=C(/C=C/c1cnc(N[C@@H]2CCN(CCc3ccccc3)C2)cn1)NO` [Example 119, (2E)-N-hydroxy-3-(5-{[(3R)-1-(2-phenylethyl)-3-pyrrolidinyl]amino}-2-pyrazinyl)acrylamide dihydrochloride], the IC50 in experiment [1] is less than 25 nM; in experiment [2] it was less than 10 nM.

Consider `O=C(/C=C/c1cnc(N[C@@H]2CCN(C3CCCCC3)C2)cn1)NO` [Example 123, (2E)-3-(5-{[(3R)-1-cyclohexyl-3-pyrrolidinyl]amino}-2-pyrazinyl)-N-hydroxyacrylamide dihydrochloride], for which the IC50 in experiment [1] is less than 25 nM; in experiment [2], less than 10 nM.

Take `O=C(/C=C/c1cnc(N[C@@H]2CCN(C(=O)C3CCCCC3)C2)c(Cl)c1)NO` [Example 174, (2E)-3-(5-chloro-6-{[(3R)-1-(cyclohexylcarbonyl)-3-pyrrolidinyl]amino}-3-pyridinyl)-N-hydroxyacrylamide hydrochloride]: the concentration for half-maximal inhibition (IC50) in experiment [1] was less than 25 nM; in experiment [2] it was less than 10 nM.

As for `CC1=C(CN2CC[C@@H](Nc3ccc(/C=C/C(=O)NO)cn3)C2)C(C)(C)CCC1` [Example 189, (2E)-N-hydroxy-3-[6-({(3R)-1-[(2,6,6-trimethyl-1-cyclohexen-1-yl)methyl]-3-pyrrolidinyl}amino)-3-pyridinyl]acrylamide dihydrochloride], the IC50 was less than 25 nM in experiment [1] and less than 10 nM in experiment [2].
